Experimental data: paper PMC8814031, “Synthesis and characterization of novel combretastatin analogues of 1,1-diaryl vinyl sulfones, with antiproliferative potential via in-silico and in-vitro studies” (Scientific Reports, 2022)
Like-named read-outs stand apart in the source and are kept apart here.

Tests used:
[1] = system: HeLa (cervical cancer) cells; experiment: MTT antiproliferative assay, HeLa; type: cell-based; details: 48 h, mean ± SEM of three experiments, read-out: IC50 values against selected human cancer cell lines, HeLa
Description: (§1) A panel of four cancer cell lines used for testing the in-vitro cytotoxicity include: MDA-MB-231 derived from human breast adenocarcinoma cells (ATCC No HTB-26), HeLa derived from human cervical cancer cells (ATCC No. CCL-2), A549 derived from human alveolar adenocarcinoma epithelial cells (ATCC No. CCL-185) and IMR-32 derived from human neuroblastoma cell line (ATCC No CCL-127), with a normal cell line HEK-293 (human embryonic kidney cell). These cancer cell lines were obtained from the American Type Culture Collection (ATCC), Manassas, VA, USA, and stored before use.
(§2) The cytotoxicity of synthesized compounds 4A–V were determined in triplicates by 3-[4,5-dimethylthiazol-2-yl]-2,5-diphenyltetrazolium bromide (MTT) assay[51]^,[52]. The pale yellow coloured tetrazolium salt (MTT) reduced to a dark blue water-insoluble formazan by metabolically active cells and the product was measured quantitatively after solubility in DMSO. The absorbance of the soluble formazan is directly proportional to the number of viable cells. A panel of four cancer cell lines were used for testing the in-vitro cytotoxicity. These cell lines were grown in Dulbecco’s modified Eagle’s medium (DMEM) containing non-essential amino acids and 10% FBS. All the cells were maintained under humidified conditions of 5% CO2 atmosphere at 37 °C in a CO2 incubator (Model Galaxy 170S, Eppendorf, USA). The 96-well micro titre plates were incubated for 24 h prior to addition of the experimental compounds. Cells were treated with vehicle alone (DMSO) or compounds (drugs (1 µg/mL) were dissolved in 100 µL DMSO previously) at different concentrations (0.1, 1, 10 and 25 µM) of test compounds for 48 h. The assay was completed with the addition of MTT (5%, 10µL) and incubated for 60 min at 37 °C. The supernatant was aspirated and plates were air dried and the MTT-formazan crystals were dissolved in 100 µL of DMSO.
(§3) The optical density (O.D) was measured at 570 nm using TECAN multimode reader (Infinite® M200Pro, Tecan, Switzerland). The percent cell viability of each treated well of 96 well plate was calculated based on test wells relative to control wells. Doxorubicin was used as positive controls for comparison purpose and 1% DMSO as a vehicle control. The cytotoxicity of test compounds was expressed in terms of IC50 value, which is defined as a concentration of compound that produced 50% reduction absorbance relative to control, and the absorbance at 570 nm wavelength was recorded.

[2] = system: IMR-32 (neuroblast cancer) cells; experiment: MTT antiproliferative assay, IMR-32; type: cell-based; details: mean ± SEM of three experiments, read-out: IC50 values against selected human cancer cell lines, IMR32
Description: as §1, §2, §3

[3] = system: HEK-293 (human embryonic kidney normal cell line); experiment: MTT cytotoxicity assay, normal cell line HEK-293; type: cell-based; details: for IC50: normal cell line
Description: as §1, §2, §3

[4] = system: MDA-MB 231 (breast cancer) cells; experiment: MTT antiproliferative assay, MDA-MB 231; type: cell-based; details: mean ± SEM of three experiments, read-out: IC50 values against selected human cancer cell lines, MDA-MB 231
Description: as §1, §2, §3

A549 (lung cancer) cells = experiment: MTT antiproliferative assay, A549; type: cell-based; details: Homo sapiens, 48 h, mean ± SEM of three experiments, read-out: IC50 values against selected human cancer cell lines, A549
Experimental: These cancer cell lines were obtained from the American Type Culture Collection (ATCC), Manassas, VA, USA, and stored before use.
The pale yellow coloured tetrazolium salt (MTT) reduced to a dark blue water-insoluble formazan by metabolically active cells and the product was measured quantitatively after solubility in DMSO. The absorbance of the soluble formazan is directly proportional to the number of viable cells. A panel of four cancer cell lines were used for testing the in-vitro cytotoxicity. These cell lines were grown in Dulbecco’s modified Eagle’s medium (DMEM) containing non-essential amino acids and 10% FBS. […] The 96-well micro titre plates were incubated for 24 h prior to addition of the experimental compounds. […] The supernatant was aspirated and plates were air dried and the MTT-formazan crystals were dissolved in 100 µL of DMSO.
The optical density (O.D) was measured at 570 nm using TECAN multimode reader (Infinite® M200Pro, Tecan, Switzerland). The percent cell viability of each treated well of 96 well plate was calculated based on test wells relative to control wells. Doxorubicin was used as positive controls for comparison purpose and 1% DMSO as a vehicle control.

Row | Structure (SMILES) | melting point | IC50 ([1]; Homo sapiens, HeLa) | IC50 ([2]; Homo sapiens, IMR-32, 48 h) | IC50 ([3]; Homo sapiens, HEK293, 48 h) | IC50 ([4]; Homo sapiens, MDA-MB-231, 48 h) | IC50 (A549 (lung cancer) cells) | IC50 [1] | IC50 ([2]; 48 h) | IC50 ([3]; 48 h) | IC50 ([4]; 48 h) | Cytotoxicity towards normal cell line HEK-293 (in words) ([3]; normal cells)
1 | COc1cc(/C(=C\S(=O)(=O)c2ccc(C)cc2)c2ccccc2)cc(OC)c1OC [Compound 4A, (Z)-1,2,3-trimethoxy-5-(1-phenyl-2-tosylvinyl)benzene] | 139 to 141 °C | 9.4 ± 0.72 µM | 6.4 ± 0.82 µM | > 25 µM | 19.4 ± 1.72 µM | 6.39 ± 0.68 µM | – | – | – | – | –
2 | COc1ccc(/C(=C/S(=O)(=O)c2ccc(C)cc2)c2cc(OC)c(OC)c(OC)c2)cc1 [Compound 4B] | 124 to 126 °C | 8.59 ± 0.58 µM | 4.1 ± 0.96 µM | > 25 µM | 14.6 ± 0.85 µM | 4.68 ± 0.46 µM | – | – | – | – | –
3 | COc1ccc(/C(=C/S(=O)(=O)c2ccc(C)cc2)c2cc(OC)c(OC)c(OC)c2)c(OC)c1 [Compound 4C] | 107 to 109 °C | 10.6 ± 0.56 µM | 7.04 ± 0.83 µM | > 25 µM | 13.6 ± 1.56 µM | 7.04 ± 0.08 µM | – | – | – | – | –
4 | COc1ccc(/C(=C/S(=O)(=O)c2ccc(C)cc2)c2cc(OC)c(OC)c(OC)c2)cc1OC [Compound 4D] | 173 to 175 °C | 10.9 ± 0.54 µM | 6.25 ± 0.03 µM | > 25 µM | 14.9 ± 1.54 µM | 5.52 ± 0.06 µM | – | – | – | – | –
5 | COc1cc(OC)cc(/C(=C/S(=O)(=O)c2ccc(C)cc2)c2cc(OC)c(OC)c(OC)c2)c1 [Compound 4E] | 163 to 165 °C | 11.1 ± 0.51 µM | 6.23 ± 0.09 µM | > 25 µM | 14.1 ± 1.51 µM | 5.32 ± 0.92 µM | – | – | – | – | –
6 | COc1cc(/C(=C\S(=O)(=O)c2ccc(C)cc2)c2ccc(F)cc2)cc(OC)c1OC [Compound 4G] | 141 to 143 °C | 8.73 ± 0.49 µM | 7.29 ± 0.46 µM | > 25 µM | 13.2 ± 1.49 µM | 6.92 ± 0.65 µM | – | – | – | – | –
7 | COc1cc(/C(=C\S(=O)(=O)c2ccc(C)cc2)c2ccc(C(F)(F)F)cc2)cc(OC)c1OC [Compound 4H] | 125 to 127 °C | 9.62 ± 0.44 µM | 7.48 ± 0.13 µM | > 25 µM | 15.9 ± 1.44 µM | 6.84 ± 0.7 µM | – | – | – | – | –
8 | COc1cc(/C(=C\S(=O)(=O)c2ccc(C)cc2)c2ccc(F)cc2F)cc(OC)c1OC [Compound 4I] | 113 to 115 °C | 9.46 ± 0.4 µM | 15.1 ± 0.16 µM | > 25 µM | 12.7 ± 0.4 µM | 13.1 ± 0.86 µM | – | – | – | – | –
9 | COc1cc(/C(=C\S(=O)(=O)c2ccc(C)cc2)c2ccc(F)c(F)c2)cc(OC)c1OC [Compound 4J] | 140 to 142 °C | 9.98 ± 0.42 µM | 12.03 ± 0.02 µM | > 25 µM | 13.1 ± 0.92 µM | 11.3 ± 0.83 µM | – | – | – | – | –
10 | CCOc1ccc(F)c(/C(=C/S(=O)(=O)c2ccc(C)cc2)c2cc(OC)c(OC)c(OC)c2)c1 [Compound 4K] | 125 to 127 °C | 9.5 ± 0.49 µM | 8.06 ± 0.09 µM | > 25 µM | 13.6 ± 0.89 µM | 7.02 ± 0.84 µM | – | – | – | – | –
11 | COc1cc(/C(=C\S(=O)(=O)c2ccc(C)cc2)c2ccc(F)c(Cl)c2)cc(OC)c1OC [Compound 4L] | 123 to 125 °C | 8.74 ± 0.49 µM | 5.12 ± 0.36 µM | > 25 µM | 13.4 ± 1.49 µM | 8.54 ± 0.85 µM | – | – | – | – | –
12 | COc1cc(/C(=C\S(=O)(=O)c2ccc(C)cc2)c2ccc(Cl)cc2)cc(OC)c1OC [Compound 4M] | 96 to 98 °C | – | 6.79 ± 0.44 µM | > 25 µM | 11.1 ± 1.5 µM | 5.12 ± 0.08 µM | – | – | – | – | –
13 | COc1cc(/C(=C\S(=O)(=O)c2ccc(C)cc2)c2ccc(Cl)c(Cl)c2)cc(OC)c1OC [Compound 4N] | 151 to 153 °C | 9.64 ± 0.96 µM | 9.14 ± 0.84 µM | > 25 µM | 9.85 ± 0.72 µM | 6.79 ± 0.19 µM | – | – | – | – | –
14 | COc1cc(/C(=C\S(=O)(=O)c2ccc(C)cc2)c2ccc(C#N)cc2)cc(OC)c1OC [Compound 4O] | 165 to 167 °C | 9.83 ± 0.76 µM | 9.08 ± 0.07 µM | > 25 µM | 12.4 ± 1.67 µM | 9.14 ± 0.91 µM | – | – | – | – | –
15 | COc1cc(/C(=C\S(=O)(=O)c2ccc(C)cc2)c2cccc(C(F)(F)F)c2F)cc(OC)c1OC [Compound 4Q] | – | – | – | – | – | – | 10.7 ± 0.74 µM | 7.46 ± 0.61 µM | > 25 µM | 12.2 ± 1.61 µM | –
16 | COc1cc(/C(=C\S(=O)(=O)c2ccc(C)cc2)c2cc(C)ccc2F)cc(OC)c1OC [Compound 4R] | – | 10.5 ± 1.03 µM | 6.14 ± 0.03 µM | > 25 µM | 12.2 ± 0.54 µM | 7.46 ± 0.07 µM | – | – | – | – | –
17 | COc1cc(/C(=C\S(=O)(=O)c2ccc(C)cc2)c2ccc(C)c(F)c2)cc(OC)c1OC [Compound 4T] | 124 to 126 °C | 8.39 ± 0.99 µM | 6.29 ± 0.07 µM | > 25 µM | 10.4 ± 1.55 µM | 7.22 ± 0.81 µM | – | – | – | – | –
18 | COc1cc(/C(=C\S(=O)(=O)c2ccc(C)cc2)c2ccc(-c3ccccc3)cc2)cc(OC)c1OC [Compound 4U] | 132 to 134 °C | 11.7 ± 0.81 µM | 11.8 ± 0.13 µM | > 25 µM | 23.9 ± 1.56 µM | 11.1 ± 0.78 µM | – | – | – | – | –
19 | COc1cc(C#CS(=O)(=O)c2ccc(C)cc2)cc(OC)c1OC [Compound 4V] | 119 to 121 °C | – | – | – | – | – | – | – | – | – | showed some level of cytotoxicity
20 | COc1cccc2c1C(=O)c1c(O)c3c(c(O)c1C2=O)C[C@@](O)(C(=O)CO)C[C@@H]3O[C@H]1C[C@H](N)[C@H](O)[C@H](C)O1 [Doxorubicin, reference compound] | – | 1.68 ± 0.24 µM | 0.23 µM | – | 0.89 ± 0.02 µM | – | – | – | – | – | –
